# From patent publication US20100267561A1, “HERBICIDAL PYRIDAZINONE DERIVATIVES” (priority 2007, published 2010)
# What was measured:
# Assay in all cases: Test B pre-/postemergence plant response
# Assay type in all cases: in vivo
# [1] = system: Russian thistle (Salsola iberica); settings: Preemergence; for Plant response rating, Russian Thistle: scale 0 to 100 (0 no effect, 100 complete control)
# Method in brief: (§1)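 Visual scoring from 0 (no effect) to 100 (complete control) against untreated controls was done 13 to 15 days after greenhouse treatment. Chemicals were formulated in a surfactant-containing non-phytotoxic solvent and applied to soil preemergence or to 1- to 4-leaf (2-18 cm) plants postemergence.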
# [2] = system: blackgrass (Alopecurus myosuroides)
# Method in brief: as §1
# [3] = system: cocklebur (Xanthium strumarium); settings: for Cocklebur plant response rating: 8 g ai/ha
# Method in brief: as §1
# [4] = system: common (oilseed) sunflower (Helianthus annuus); settings: Preemergence
# Method in brief: as §1
# [5] = system: common ragweed (Ambrosia elation); settings: for Ragweed plant response rating: 8 g ai/ha
# Method in brief: as §1
# corn (Zea mays) = settings: for Corn plant response rating: 8 g ai/ha
# Method in brief: as §1
# [6] = system: downy bromegrass (Bromus tectorum); settings: for Bromegrass, Downy plant response rating: 8 g ai/ha
# Method in brief: as §1
# [7] = system: eastern black (E.B.) nightshade (Solanum ptycanthum); settings: Preemergence
# Method in brief: as §1
# [8] = system: green foxtail (Setaria viridis); settings: for Foxtail, Green plant response rating: 8 g ai/ha
# Method in brief: as §1
# [9] = system: surinam grass (Brachiaria decumbens); settings: for Surinam Grass plant response rating: 8 g ai/ha
# Method in brief: as §1
# [10] = system: wheat (Triticum aestivum); settings: for Wheat plant response rating: 8 g ai/ha
# Method in brief: as §1
# wild oat (Avena fatua) = settings: for Oat, Wild plant response rating: 8 g ai/ha
# Method in brief: as §1
# [11] = system: woolly cupgrass (Eriochloa villosa); settings: for Cupgrass, Woolly plant response rating: 8 g ai/ha
# Method in brief: as §1
# [12] = system: yellow nutsedge (Cyperus esculentus); settings: for Nutsedge, Yellow plant response rating: 8 g ai/ha
# Method in brief: as §1
# [13] = Postemergence, 16 g ai/ha, scale 0 to 100
# [14] = Postemergence, 31 g ai/ha, scale 0 to 100
# [15] = Postemergence, 62 g ai/ha, scale 0 to 100, 0 no effect, 100 complete control
# [16] = Preemergence, 16 g ai/ha, scale 0 to 100 (0 no effect, 100 complete control)
# [17] = Preemergence, 31 g ai/ha, 0 to 100 scale, 0 no effect, 100 complete control
# [18] = Preemergence, 62 g ai/ha, scale 0 to 100
# [19] = 16 g ai/ha, scale 0 to 100 (0 no effect, 100 complete control)
# [20] = 31 g ai/ha, scale 0 to 100 (0 no effect, 100 complete control)
# [21] = Preemergence, 31 g ai/ha, scale 0 to 100 (0 no effect, 100 complete control)
# [22] = Preemergence, 62 g ai/ha, 0 to 100 scale, 0 no effect, 100 complete control
structure (smiles),measurement,setting,value
Cn1ncc(O)c(-n2nc(-c3ccc(Cl)cc3)cc2C2CC2)c1=O [Compound 45],"Plant response rating, Russian Thistle",[1]; 16 g ai/ha,0
same,"Plant response rating, Russian Thistle",[1]; 31 g ai/ha,0
same,Russian Thistle plant response rating,"[1]; 8 g ai/ha, scale 0 to 100",0
same,Blackgrass plant response rating,"[2]; 8 g ai/ha, postemergence, 0-100 scale",0
same,"Plant response rating, Blackgrass",[2]; [13],20
same,"Plant response rating, Blackgrass",[2]; [14],85
same,"Plant response rating, Blackgrass",[2]; [15],90
same,"Plant response rating, Blackgrass",[2]; [16],98
same,"Plant response rating, Blackgrass",[2]; [17],100
same,"Plant response rating, Blackgrass",[2]; [18],100
same,Cocklebur plant response rating,"[3]; postemergence, 0-100 scale",0
same,"Plant response rating, Cocklebur",[3]; [13],0
same,"Plant response rating, Cocklebur",[3]; [14],0
same,"Plant response rating, Cocklebur",[3]; [15],0
same,"Plant response rating, Cocklebur",[3]; [16],0
same,"Plant response rating, Cocklebur",[3]; [17],0
same,"Plant response rating, Cocklebur",[3]; [18],0
same,Cocklebur plant response rating,"[3]; Preemergence, scale 0 to 100",0
same,"Plant response rating, Sunflower",[4]; [19],0
same,"Plant response rating, Sunflower",[4]; [20],0
same,"Plant response rating, Sunflower","[4]; 62 g ai/ha, scale 0 to 100",0
same,Sunflower plant response rating,"[4]; 8 g ai/ha, scale 0 to 100",0
same,Ragweed plant response rating,"[5]; postemergence, 0-100 scale",0
same,"Plant response rating, Ragweed",[5]; [13],0
same,"Plant response rating, Ragweed",[5]; [14],0
same,"Plant response rating, Ragweed",[5]; [15],0
same,"Plant response rating, Ragweed",[5]; [16],0
same,"Plant response rating, Ragweed",[5]; [21],0
same,"Plant response rating, Ragweed",[5]; [18],0
same,Ragweed plant response rating,"[5]; Preemergence, scale 0 to 100",0
same,Corn plant response rating,"corn (Zea mays); postemergence, 0-100 scale",85
same,"Plant response rating, Corn",corn (Zea mays); [13],90
same,"Plant response rating, Corn",corn (Zea mays); [14],95
same,"Plant response rating, Corn",corn (Zea mays); [15],95
same,"Plant response rating, Corn",corn (Zea mays); [16],55
same,"Plant response rating, Corn",corn (Zea mays); [17],65
same,"Plant response rating, Corn",corn (Zea mays); [18],98
same,Corn plant response rating,"corn (Zea mays); Preemergence, scale 0 to 100",0
same,"Bromegrass, Downy plant response rating","[6]; postemergence, 0-100 scale",30
same,"Plant response rating, Bromegrass, Downy",[6]; [13],60
same,"Plant response rating, Bromegrass, Downy",[6]; [14],90
same,"Plant response rating, Bromegrass, Downy",[6]; [15],90
same,"Plant response rating, Bromegrass, Downy",[6]; [16],50
same,"Plant response rating, Bromegrass, Downy",[6]; [17],80
same,"Plant response rating, Bromegrass, Downy",[6]; [18],90
same,"Bromegrass, Downy plant response rating","[6]; Preemergence, scale 0 to 100",0
same,"Plant response rating, Nightshade, E. B.",[7]; [19],0
same,"Plant response rating, Nightshade, E. B.",[7]; [20],0
same,"Plant response rating, Nightshade, E. B.","[7]; 62 g ai/ha, scale 0 to 100",0
same,"Nightshade, E. B. plant response rating","[7]; 8 g ai/ha, scale 0 to 100",0
same,"Foxtail, Green plant response rating","[8]; postemergence, 0-100 scale",60
same,"Plant response rating, Foxtail, Green",[8]; [13],95
same,"Plant response rating, Foxtail, Green",[8]; [14],100
same,"Plant response rating, Foxtail, Green",[8]; [15],100
same,"Plant response rating, Foxtail, Green",[8]; [16],100
same,"Plant response rating, Foxtail, Green",[8]; [17],100
same,"Plant response rating, Foxtail, Green",[8]; [18],100
same,"Foxtail, Green plant response rating","[8]; Preemergence, scale 0 to 100",100
same,Surinam Grass plant response rating,"[9]; postemergence, 0-100 scale",75
same,"Plant response rating, Surinam Grass",[9]; [13],85
same,"Plant response rating, Surinam Grass",[9]; [14],98
same,"Plant response rating, Surinam Grass",[9]; [15],100
same,"Plant response rating, Surinam Grass",[9]; [16],20
same,"Plant response rating, Surinam Grass",[9]; [21],40
same,"Plant response rating, Surinam Grass",[9]; [22],90
same,Surinam Grass plant response rating,"[9]; Preemergence, scale 0 to 100",0
same,Wheat plant response rating,"[10]; postemergence, 0-100 scale",60
same,"Plant response rating, Wheat",[10]; [13],85
same,"Plant response rating, Wheat",[10]; [14],85
same,"Plant response rating, Wheat",[10]; [15],98
same,"Plant response rating, Wheat",[10]; [16],30
same,"Plant response rating, Wheat",[10]; [21],70
same,"Plant response rating, Wheat",[10]; [22],95
same,Wheat plant response rating,"[10]; Preemergence, scale 0 to 100",0
same,"Oat, Wild plant response rating","wild oat (Avena fatua); postemergence, 0-100 scale",90
same,"Plant response rating, Oat, Wild",wild oat (Avena fatua); [13],98
same,"Plant response rating, Oat, Wild",wild oat (Avena fatua); [14],100
same,"Plant response rating, Oat, Wild",wild oat (Avena fatua); [15],100
same,"Plant response rating, Oat, Wild",wild oat (Avena fatua); [16],80
same,"Plant response rating, Oat, Wild",wild oat (Avena fatua); [21],90
same,"Plant response rating, Oat, Wild",wild oat (Avena fatua); [18],95
same,"Oat, Wild plant response rating","wild oat (Avena fatua); Preemergence, scale 0 to 100",15
same,"Cupgrass, Woolly plant response rating","[11]; postemergence, 0-100 scale",85
same,"Plant response rating, Cupgrass, Woolly",[11]; [13],95
same,"Plant response rating, Cupgrass, Woolly",[11]; [14],100
same,"Plant response rating, Cupgrass, Woolly",[11]; [15],100
same,"Plant response rating, Cupgrass, Woolly",[11]; [16],0
same,"Plant response rating, Cupgrass, Woolly",[11]; [18],0
same,"Cupgrass, Woolly plant response rating","[11]; Preemergence, scale 0 to 100",0
same,"Nutsedge, Yellow plant response rating","[12]; postemergence, 0-100 scale",0
same,"Plant response rating, Nutsedge, Yellow",[12]; [13],0
same,"Plant response rating, Nutsedge, Yellow",[12]; [14],0
same,"Plant response rating, Nutsedge, Yellow",[12]; [15],0
same,"Plant response rating, Nutsedge, Yellow",[12]; [16],0
same,"Plant response rating, Nutsedge, Yellow",[12]; [21],0
same,"Plant response rating, Nutsedge, Yellow",[12]; [18],0
same,"Nutsedge, Yellow plant response rating","[12]; Preemergence, scale 0 to 100",0
